Values belong to the compound of their own block, whether it stands above or below them. The source made the active and inactive calls.
Tests used:
Beta-galactosidase = Beta-galactosidase (Escherichia coli, UniProt Q8VNN2); experiment: detection-enzyme interference by beta-gal modulators – biochemical, E. coli enzyme, set 3, artefact control for CCR6 antagonist project, dose response (AID 504712); format: functional
[1] = Luminescence Cell-Based Dose Retest to Confirm Inhibitors of Cancer Stem Cells. [Related pubchem assays (depositor defined):AID2717, AID2721]; format: functional; conditions: Homo sapiens
[2] = target: Voltage-dependent T-type calcium channel subunit alpha-1H (Homo sapiens, UniProt O95180); format: functional;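 note: channel activity triggered by adding a high calcium stimulation buffer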
Cytochrome P450 2C9 = Cytochrome P450 2C9 (Homo sapiens, UniProt P11712); conditions: Potency
Chain of Cytochrome P450 2C9 (P11712 whole entry): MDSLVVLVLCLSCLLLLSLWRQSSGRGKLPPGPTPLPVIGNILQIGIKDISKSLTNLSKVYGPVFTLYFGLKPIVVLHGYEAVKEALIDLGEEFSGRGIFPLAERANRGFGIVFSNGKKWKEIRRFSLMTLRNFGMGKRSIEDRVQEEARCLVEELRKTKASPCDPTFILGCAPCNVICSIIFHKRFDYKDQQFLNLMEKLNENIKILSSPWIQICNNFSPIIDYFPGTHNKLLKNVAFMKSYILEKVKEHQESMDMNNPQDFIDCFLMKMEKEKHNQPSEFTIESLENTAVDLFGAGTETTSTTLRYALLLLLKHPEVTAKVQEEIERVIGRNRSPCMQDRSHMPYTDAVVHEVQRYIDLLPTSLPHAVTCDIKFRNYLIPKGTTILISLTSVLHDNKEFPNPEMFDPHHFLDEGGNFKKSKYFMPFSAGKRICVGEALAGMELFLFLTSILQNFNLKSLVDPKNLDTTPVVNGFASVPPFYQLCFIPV

Chain of Beta-galactosidase (Q8VNN2 whole entry): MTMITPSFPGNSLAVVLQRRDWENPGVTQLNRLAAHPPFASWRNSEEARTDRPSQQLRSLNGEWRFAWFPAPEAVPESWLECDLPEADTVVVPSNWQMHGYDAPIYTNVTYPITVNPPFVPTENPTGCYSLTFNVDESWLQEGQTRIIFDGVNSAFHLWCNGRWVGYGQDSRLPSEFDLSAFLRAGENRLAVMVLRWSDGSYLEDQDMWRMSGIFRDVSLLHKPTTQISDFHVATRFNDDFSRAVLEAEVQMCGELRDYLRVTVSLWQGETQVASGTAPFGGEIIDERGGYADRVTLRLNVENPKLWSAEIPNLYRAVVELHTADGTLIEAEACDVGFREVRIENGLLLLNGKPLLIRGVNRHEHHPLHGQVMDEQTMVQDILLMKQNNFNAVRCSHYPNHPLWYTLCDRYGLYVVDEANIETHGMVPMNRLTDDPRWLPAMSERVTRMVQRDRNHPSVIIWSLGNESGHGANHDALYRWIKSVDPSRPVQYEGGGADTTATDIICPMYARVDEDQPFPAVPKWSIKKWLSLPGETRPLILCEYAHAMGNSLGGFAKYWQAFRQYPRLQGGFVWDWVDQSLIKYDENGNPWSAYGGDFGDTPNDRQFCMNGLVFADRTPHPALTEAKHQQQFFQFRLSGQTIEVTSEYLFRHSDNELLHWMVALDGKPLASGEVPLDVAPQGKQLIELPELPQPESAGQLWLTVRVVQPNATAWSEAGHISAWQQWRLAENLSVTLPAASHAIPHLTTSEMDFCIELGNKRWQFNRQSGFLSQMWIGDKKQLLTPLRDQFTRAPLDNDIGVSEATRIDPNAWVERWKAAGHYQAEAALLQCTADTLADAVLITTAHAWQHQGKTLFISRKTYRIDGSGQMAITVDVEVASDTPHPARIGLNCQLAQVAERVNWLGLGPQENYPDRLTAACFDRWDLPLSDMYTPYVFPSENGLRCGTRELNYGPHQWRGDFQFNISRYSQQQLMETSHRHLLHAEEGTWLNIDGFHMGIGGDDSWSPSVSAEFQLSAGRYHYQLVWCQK
Chain of Voltage-dependent T-type calcium channel subunit alpha-1H (O95180 whole entry): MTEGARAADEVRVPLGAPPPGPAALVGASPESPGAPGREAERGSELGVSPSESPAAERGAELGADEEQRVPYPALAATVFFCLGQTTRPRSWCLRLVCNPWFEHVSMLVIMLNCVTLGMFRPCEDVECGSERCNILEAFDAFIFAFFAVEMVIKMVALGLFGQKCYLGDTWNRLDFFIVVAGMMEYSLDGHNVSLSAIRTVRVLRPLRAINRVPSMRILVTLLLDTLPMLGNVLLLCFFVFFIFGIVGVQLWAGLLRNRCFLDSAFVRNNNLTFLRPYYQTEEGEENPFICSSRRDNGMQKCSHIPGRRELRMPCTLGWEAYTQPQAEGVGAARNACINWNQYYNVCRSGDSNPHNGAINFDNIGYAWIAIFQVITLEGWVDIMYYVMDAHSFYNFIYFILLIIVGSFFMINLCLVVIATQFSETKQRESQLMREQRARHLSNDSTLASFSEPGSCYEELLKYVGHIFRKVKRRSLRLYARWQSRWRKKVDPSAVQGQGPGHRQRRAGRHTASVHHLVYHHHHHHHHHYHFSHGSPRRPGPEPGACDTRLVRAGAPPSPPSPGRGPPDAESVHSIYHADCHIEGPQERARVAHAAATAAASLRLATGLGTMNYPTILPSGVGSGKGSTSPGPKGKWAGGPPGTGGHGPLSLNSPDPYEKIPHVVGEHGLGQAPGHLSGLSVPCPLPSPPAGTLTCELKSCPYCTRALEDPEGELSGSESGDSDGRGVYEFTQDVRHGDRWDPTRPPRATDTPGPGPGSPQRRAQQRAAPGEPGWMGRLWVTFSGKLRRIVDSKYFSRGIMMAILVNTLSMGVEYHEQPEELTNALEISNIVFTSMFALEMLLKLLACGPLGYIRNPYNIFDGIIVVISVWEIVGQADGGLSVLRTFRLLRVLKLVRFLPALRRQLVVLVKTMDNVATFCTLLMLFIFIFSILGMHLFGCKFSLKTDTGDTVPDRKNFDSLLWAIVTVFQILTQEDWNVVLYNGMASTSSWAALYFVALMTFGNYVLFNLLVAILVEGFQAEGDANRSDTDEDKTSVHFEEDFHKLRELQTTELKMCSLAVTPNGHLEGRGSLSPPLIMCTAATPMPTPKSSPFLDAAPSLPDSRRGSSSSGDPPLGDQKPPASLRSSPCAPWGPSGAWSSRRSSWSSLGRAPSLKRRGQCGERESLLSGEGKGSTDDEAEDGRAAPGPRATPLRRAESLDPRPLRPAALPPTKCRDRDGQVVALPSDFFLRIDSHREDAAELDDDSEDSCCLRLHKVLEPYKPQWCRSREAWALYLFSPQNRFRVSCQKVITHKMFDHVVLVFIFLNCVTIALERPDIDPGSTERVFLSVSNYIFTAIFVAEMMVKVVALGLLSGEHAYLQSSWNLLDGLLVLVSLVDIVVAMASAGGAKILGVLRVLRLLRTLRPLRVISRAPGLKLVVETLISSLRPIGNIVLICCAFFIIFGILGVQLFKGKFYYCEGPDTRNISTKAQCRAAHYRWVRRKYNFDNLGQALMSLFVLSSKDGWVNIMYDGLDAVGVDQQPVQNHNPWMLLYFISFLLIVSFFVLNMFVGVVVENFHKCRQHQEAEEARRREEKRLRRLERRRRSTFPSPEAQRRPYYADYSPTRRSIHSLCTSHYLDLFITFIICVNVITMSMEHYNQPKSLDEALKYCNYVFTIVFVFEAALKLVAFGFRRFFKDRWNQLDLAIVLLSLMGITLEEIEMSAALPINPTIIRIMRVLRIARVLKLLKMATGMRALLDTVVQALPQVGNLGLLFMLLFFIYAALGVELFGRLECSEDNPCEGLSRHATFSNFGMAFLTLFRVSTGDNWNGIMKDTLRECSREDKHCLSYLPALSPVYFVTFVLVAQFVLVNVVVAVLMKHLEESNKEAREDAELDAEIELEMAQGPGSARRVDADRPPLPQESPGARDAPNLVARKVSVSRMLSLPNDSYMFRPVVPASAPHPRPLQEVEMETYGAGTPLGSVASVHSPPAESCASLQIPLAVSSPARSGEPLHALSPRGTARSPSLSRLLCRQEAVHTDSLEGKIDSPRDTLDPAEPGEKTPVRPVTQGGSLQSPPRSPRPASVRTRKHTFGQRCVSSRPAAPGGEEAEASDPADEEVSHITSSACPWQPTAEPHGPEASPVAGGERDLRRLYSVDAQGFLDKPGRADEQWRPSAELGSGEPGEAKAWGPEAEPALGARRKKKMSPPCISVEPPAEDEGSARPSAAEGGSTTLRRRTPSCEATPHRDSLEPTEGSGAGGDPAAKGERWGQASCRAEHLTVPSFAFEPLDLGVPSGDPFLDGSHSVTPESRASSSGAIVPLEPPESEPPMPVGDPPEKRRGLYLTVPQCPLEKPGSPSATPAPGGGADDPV

SMILES: Cc1ccc(C(NC(=O)C(C)C)c2cc([N+](=O)[O-])c3cccnc3c2O)cc1 (centres undefined)
IC50 (Beta-galactosidase): > 66.6 µM (inactive) | AC50 [1]: 1.02 µM (active)

EC50 [2]: 12.9 µM (active)
SMILES: CCC(=O)N1CCN(c2ccccc2NC(=O)Cc2ccccc2)CC1

AC50 (Cytochrome P450 2C9): 31.6 µM (inconclusive)
SMILES: COc1ccc(-c2oc3cc(OC)c(OC(C)=O)c(OC)c3c(=O)c2OC)cc1OC(C)=O
